Reference: patent publication US10813906B2, “Use of ferrous amino acid chelate to treat infection by enteropathogen and to enhance growth performance” (Profeat Biotechnology Co., Ltd., priority 2018, dated 2020)

Tests used:
Escherichia coli = test: Enteropathogen infection in chickens, real time PCR of feces: Escherichia coli; format: in vivo, Taiwan black-feather country chickens; conditions: Week 10, feces from cloaca
Clostridium perfringens = format: in vivo, Taiwan black-feather country chickens; conditions: Week 6; feces from cloaca, real time PCR
Coccidia = Coccidia infestation in chickens, microscopic observation of feces; format: in vivo, Taiwan black-feather country chickens; conditions: Week 6
Description: The experimental chickens were randomly divided into a control group and an experimental group (n=40/group), and each group was placed in a pen with a size of 6.5 m^2. Water was provided ad libitum for all of the experimental chickens. […] The mixed feed supplied to the control group was made from a basal diet and a ferrous sulfate (20 g of Fe per 1000 kg of the mixed feed). The mixed feed supplied to the experimental group was made from the basal diet and the ferrous amino acid chelate prepared as described in the section, entitled “1. […] Moreover, during supply of the mixed feed, fifteen chickens were randomly chosen at a designated time point to collect the feces from the cloaca thereof using cotton swabs. Coccidia infestation is determined by microscopic observation of the obtained feces sample.

[1] = Growth performance of postweaning piglets fed mixed feed for 8 weeks; format: in vivo; conditions: for ADFI (average daily feed intake) / ADG (average daily gain) / FE (feed efficiency, ratio of ADFI to ADG) / Total feed intake: age 4 to 12 weeks; for Body weight: mean ± S.D.; for Total feed intake: whole group
Description: About 1000 male piglets and 1000 female piglets (purchased from HAIFUNG ranch, Yunlin County, Taiwan and bred in the nursery) were used in the following experiment. The experimental piglets were randomly divided into an experimental group and a control group, and sufficient water and feed were supplied to the experimental piglets. […] The mixed feed supplied to the experimental group was made from the basal diet and the ferrous amino acid chelate prepared as described in the section, entitled “1. […] Subsequently, average daily gain (ADG) and average daily feed intake (ADFI) of the postweaning piglets in each group were calculated based on the body weight and the total feed intake. Feed efficiency (FE) defined as a ratio of ADFI to ADG was also calculated. The experimental data were expressed as mean±S.D., and were analyzed via Student's t-test so as to assess the difference between the test groups. Statistical significance is indicated by p<0.05.

[2] = Growth performance of chickens fed mixed feed for 12 weeks; format: in vivo, Taiwan black-feather country chickens; conditions: for Body weight: mean ± S.D., 20 g of Fe per 1000 kg of mixed feed; for ADG (average daily gain) / FE (feed efficiency, ratio of total feed intake to total body weight): Week 12, 20 g of Fe per 1000 kg of mixed feed
Description: The experimental chickens were randomly divided into a control group and an experimental group (n=40/group), and each group was placed in a pen with a size of 6.5 m^2. Water was provided ad libitum for all of the experimental chickens. […] The mixed feed supplied to the control group was made from a basal diet and a ferrous sulfate (20 g of Fe per 1000 kg of the mixed feed). The mixed feed supplied to the experimental group was made from the basal diet and the ferrous amino acid chelate prepared as described in the section, entitled “1. […] The body weight of each chicken was determined before and after supply of the mixed feed. Subsequently, average daily gain (ADG) of the chickens in each group was calculated based on the body weight and the feed intake. Feed efficiency (FE) defined as a ratio of total feed intake to total body weight was also calculated. The experimental data were analyzed via Student's t-test so as to assess the difference between the test groups. Statistical significance is indicated by p<0.05.

Salmonella spp. = test: Enteropathogen infection in chickens, real time PCR of feces: Salmonella spp.; format: in vivo, Taiwan black-feather country chickens; conditions: Week 10, feces from cloaca
Description: Taiwan black-feather country chickens (1 day of age) were purchased from Animal Research Farm in National Chia-Yi University (Taiwan), and were raised in a farm under the guidelines of Animal Care Committee of the Council of Agriculture, Taiwan. The experimental chickens were randomly divided into a control group and an experimental group (n=40/group), and each group was placed in a pen with a size of 6.5 m^2. Water was provided ad libitum for all of the experimental chickens.
Each of the experimental chickens was fed with a mixed feed for 12 weeks at a dose of 0.1 kg per day. The mixed feed supplied to the control group was made from a basal diet and a ferrous sulfate (20 g of Fe per 1000 kg of the mixed feed). The mixed feed supplied to the experimental group was made from the basal diet and the ferrous amino acid chelate prepared as described in the section, entitled “1. Preparation of ferrous amino acid chelate” of the “General Experimental Materials” (20 g of Fe per 1000 kg of the mixed feed).
Moreover, during supply of the mixed feed, fifteen chickens were randomly chosen at a designated time point to collect the feces from the cloaca thereof using cotton swabs.
In addition, the obtained feces were subjected to nucleic acid extraction with Taco™ DNA/RNA Extraction Kit (GeneReach Biotechnology Corp) according to the manufacturer's instructions. […]

[3] = age 4 weeks (at weaning, start of the mixed feed)
[4] = age 12 weeks, after 8 weeks of mixed feed (basal diet:iron source 1000:1)
[5] = Week 0 (before supply of the mixed feed)

In the case of “ferrous glycinate chelate [ferrous amino acid chelate]”, the “Enteropathogen infection, Escherichia coli (percentage of infection among 15 selected chickens)” value (Escherichia coli) is reported as 27%, the “Enteropathogen infection, Clostridium perfringens (percentage of infection among 15 selected chickens)” value (Clostridium perfringens) is reported as 0% and the “Enteropathogen infection, Coccidia (percentage of infection among 15 selected chickens)” value (Coccidia) is reported as 33%. For the same substance, the “ADFI (average daily feed intake)” value [1] was 0.78 kg/day per piglet, the “ADG (average daily gain)” value [1] was 0.40 kg/day per piglet and the “FE (feed efficiency, ratio of ADFI to ADG)” value [1] was 1.93. The Body weight [1, 3] was 9.08 ± 0.94 kg, the Body weight [1, 4] was 32.84 ± 4.01 kg and the Total feed intake [1] was 36,500 kg. For the same substance, the Body weight [2, 5] was 32.48 ± 3.49 g, the “ADG (average daily gain)” value [2] was 25.44 g/day per chicken and the “FE (feed efficiency, ratio of total feed intake to total body weight)” value [2] was 3.59. The Body weight ([2]; Week 12 of mixed feed) was 2143.71 ± 250.23 g and the “Enteropathogen infection, Salmonella spp. (percentage of infection among 15 selected chickens)” value (Salmonella spp.) was 53%.

With ferrous sulfate the “Enteropathogen infection, Escherichia coli (percentage of infection among 15 selected chickens)” value (Escherichia coli) was 93%, the “Enteropathogen infection, Clostridium perfringens (percentage of infection among 15 selected chickens)” value (Clostridium perfringens) was 33% and the “Enteropathogen infection, Coccidia (percentage of infection among 15 selected chickens)” value (Coccidia) was 100%. The “ADFI (average daily feed intake)” value [1] was 0.85 kg/day per piglet, the “ADG (average daily gain)” value [1] was 0.30 kg/day per piglet and the “FE (feed efficiency, ratio of ADFI to ADG)” value [1] was 2.80. The Body weight [1, 3] was 8.40 ± 1.17 kg, the Body weight [1, 4] was 28.00 ± 4.28 kg and the Total feed intake [1] was 33,255 kg. For the same substance, the Body weight [2, 5] was 31.06 ± 2.94 g, the “ADG (average daily gain)” value [2] was 23.3 g/day per chicken and the “FE (feed efficiency, ratio of total feed intake to total body weight)” value [2] was 3.88. The Body weight ([2]; Week 12 of mixed feed) was 1965 ± 194.44 g and the “Enteropathogen infection, Salmonella spp. (percentage of infection among 15 selected chickens)” value (Salmonella spp.) was 93%.
